Source: patent US9364467B2 (Salix Pharmaceuticals, Ltd, priority 2012, dated 2016)
Where two headings read alike, the source gives them in different places.

Columns and labels:
[1] = molecular target: T1, N-Formyl Peptide Receptor FPR1 (Homo sapiens, UniProt P21462); assay: Radioligand binding assay, N-Formyl Peptide Receptor FPR1; settings: CONC. 10 μM, hum
T1 sequence (P21462 1-350): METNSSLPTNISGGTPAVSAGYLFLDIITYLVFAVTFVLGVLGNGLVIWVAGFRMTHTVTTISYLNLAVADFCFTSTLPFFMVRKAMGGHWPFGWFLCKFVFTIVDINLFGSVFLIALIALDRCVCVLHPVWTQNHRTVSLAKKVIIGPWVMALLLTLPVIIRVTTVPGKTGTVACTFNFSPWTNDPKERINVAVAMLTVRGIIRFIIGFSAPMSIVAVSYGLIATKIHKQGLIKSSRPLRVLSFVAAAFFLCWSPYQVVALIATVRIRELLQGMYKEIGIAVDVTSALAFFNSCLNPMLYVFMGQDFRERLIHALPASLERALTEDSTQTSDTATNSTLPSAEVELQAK
Experimental: (§1) Methods employed in this study have been adapted from the scientific literature to maximize reliability and reproducibility. Reference standards were run as an integral part of each assay to ensure the validity of the results obtained. Assays were performed under conditions described in the accompanying “Methods” section below. The literature reference(s) for each assay are in the “Literature References” section.
(§2) Where presented, IC50 values were determined by a non-linear, least squares regression analysis using MathIQ™ (ID Business Solutions Ltd., UK). Where inhibition constants (KI) are presented, the KI values were calculated using the equation of Cheng and Prusoff (Cheng, Y., Prusoff, W. H., Biochem. Pharmacol. 22:3099-3108, 1973) using the observed IC50 of the tested compound, the concentration of radioligand employed in the assay, and the historical values for the KD of the ligand (obtained experimentally at Ricerca Biosciences, LLC). Where presented, the Hill coefficient (nH), defining the slope of the competitive binding curve, was calculated using MathIQ™. […] Where IC50, KI, and/or nH data are presented without Standard Error of the Mean (SEM), data are insufficient to be quantitative, and the values presented (KI, IC50, nH) should be interpreted with caution. […]

[2] = tested on: Enterococcus spp. strains; assay: In vitro activity (MIC) against Enterococcus spp. strains
S. epidermidis = assay: In vitro activity (MIC) against S. epidermidis strains
S. aureus = assay: In vitro activity (MIC) against S. aureus strains; settings: Staphylococcus aureus
Bombesin BB1 = Bombesin BB1 (Homo sapiens, UniProt P28336); assay: Radioligand binding assay, Bombesin BB1; settings: CONC. 10 μM, hum
Experimental: as §1, §2

Chain of Bombesin BB1 (P28336 whole entry): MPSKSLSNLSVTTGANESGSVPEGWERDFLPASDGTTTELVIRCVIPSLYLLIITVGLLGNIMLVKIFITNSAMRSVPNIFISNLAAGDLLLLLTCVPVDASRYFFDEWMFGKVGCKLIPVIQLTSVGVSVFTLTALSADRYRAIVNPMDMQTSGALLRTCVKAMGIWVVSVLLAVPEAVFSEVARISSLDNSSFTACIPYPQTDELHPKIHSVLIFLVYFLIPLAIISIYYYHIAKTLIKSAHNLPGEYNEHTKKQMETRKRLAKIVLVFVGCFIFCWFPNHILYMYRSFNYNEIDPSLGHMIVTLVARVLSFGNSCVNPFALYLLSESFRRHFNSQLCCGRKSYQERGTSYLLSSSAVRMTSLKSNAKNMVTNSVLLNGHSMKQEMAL

CO[C@H]1/C=C/O[C@@]2(C)Oc3c(C)c(O)c4c(O)c(c5c(nc6cc(C)ccn65)c4c3C2=O)NC(=O)/C(C)=C\C=C\[C@H](C)[C@H](O)[C@@H](C)[C@@H](O)[C@@H](C)[C@H](OC(C)=O)[C@@H]1C [Rifaximin, reference compound]
8 µg/mL: MIC ([2]; E. faecalis 239) | MIC ([2]; E. faecalis 251) | MIC ([2]; E. faecium 174) | MIC ([2]; E. faecium 188) | MIC ([2]; E. faecium 199) | MIC ([2]; E. faecium 217) | MIC ([2]; E. faecium 221) | MIC ([2]; E. faecium 230) | MIC50 ([2]; Enterococcus)
0.06 µg/mL: MIC (S. epidermidis; Staphylococcus epidermidis) | MIC (S. epidermidis; strain S. epidermidis 354) | MIC (S. aureus; strain S. aureus 237) | MIC (S. aureus; strain S. aureus 436)
2 µg/mL: MIC ([2]; E. faecium 192) | MIC ([2]; E. faecium 208) | MIC ([2]; E. faecium 229) | MIC ([2]; E. faecium 236)
0.12 µg/mL: MIC (S. aureus; strain S. aureus 253) | MIC (S. aureus; strain S. aureus 409)
> 16 µg/mL: MIC ([2]; E. faecalis 200) | MIC ([2]; E. faecalis 227) | MIC ([2]; E. faecalis 242) | MIC ([2]; E. faecalis 245) | MIC ([2]; E. faecium 185) | MIC ([2]; E. faecium 191) | MIC ([2]; E. faecium 212) | MIC ([2]; E. faecium 215) | MIC ([2]; E. faecium 222) | MIC ([2]; E. faecium 223) | MIC ([2]; E. faecium 240) | MIC ([2]; E. faecium 248) | MIC90 ([2]; Enterococcus)
< 50%: inhibition at 10 µM [1] | inhibition at 10 µM (Bombesin BB1)
0.25 µg/mL: MIC (S. aureus; strain S. aureus 234) | MIC (S. aureus; strain S. aureus 272) | MIC (S. aureus; strain S. aureus 345) | MIC (S. aureus; strain S. aureus 408)
16 µg/mL: MIC ([2]; E. faecalis 235) | MIC ([2]; E. faecalis 243) | MIC ([2]; E. faecium 190) | MIC ([2]; E. faecium 198) | MIC ([2]; E. faecium 201) | MIC ([2]; E. faecium 209) | MIC ([2]; E. faecium 231) | MIC ([2]; E. faecium 238)
1 µg/mL: MIC (S. aureus; strain S. aureus 215) | MIC (S. aureus; strain S. aureus 236) | MIC (S. aureus; strain S. aureus 267) | MIC (S. aureus; strain S. aureus 327) | MIC (S. aureus; strain S. aureus 329) | MIC (S. aureus; strain S. aureus 339)
4 µg/mL: MIC ([2]; ATCC E. faecalis 29212) | MIC ([2]; E. faecalis 181) | MIC ([2]; E. faecalis 186) | MIC ([2]; E. faecalis 187) | MIC ([2]; E. faecalis 193) | MIC ([2]; E. faecalis 194) | MIC ([2]; E. faecalis 204) | MIC ([2]; E. faecalis 205) | MIC ([2]; E. faecalis 210) | MIC ([2]; E. faecalis 228) | MIC ([2]; E. faecalis 232) | MIC ([2]; E. faecalis 237) | MIC ([2]; E. faecalis 249) | MIC ([2]; E. faecalis 250) | MIC ([2]; E. faecalis 255) | MIC ([2]; E. faecium 8) | MIC ([2]; E. faecium 13) | MIC ([2]; E. faecium 189) | MIC ([2]; E. faecium 203) | MIC ([2]; E. faecium 207) | MIC ([2]; E. faecium 225) | MIC ([2]; Enterococcus, read-out: Mode (MIC), Enterococcus spp. strains)
0.5 µg/mL: MIC (S. aureus; strain S. aureus 246) | MIC (S. aureus; strain S. aureus 252) | MIC (S. aureus; strain S. aureus 328) | MIC (S. aureus; strain S. aureus 355) | MIC (S. aureus; strain S. aureus 406) | MIC (S. aureus; strain S. aureus 416) | MIC (S. aureus; strain S. aureus 425) | MIC (S. aureus; strain S. aureus 475)
0.03 µg/mL: MIC (S. aureus; strain S. aureus 238) | MIC (S. aureus; strain S. aureus 279)
0.015 µg/mL: MIC (S. aureus; strain ATCC S. aureus 29213)
